Structures can show the parent of a compound that is named as a salt.
Biological target: T1, Human AHR (Homo sapiens, UniProt P35869)
T1 construct: expressed in transfected cells
T1 sequence (P35869 11-848): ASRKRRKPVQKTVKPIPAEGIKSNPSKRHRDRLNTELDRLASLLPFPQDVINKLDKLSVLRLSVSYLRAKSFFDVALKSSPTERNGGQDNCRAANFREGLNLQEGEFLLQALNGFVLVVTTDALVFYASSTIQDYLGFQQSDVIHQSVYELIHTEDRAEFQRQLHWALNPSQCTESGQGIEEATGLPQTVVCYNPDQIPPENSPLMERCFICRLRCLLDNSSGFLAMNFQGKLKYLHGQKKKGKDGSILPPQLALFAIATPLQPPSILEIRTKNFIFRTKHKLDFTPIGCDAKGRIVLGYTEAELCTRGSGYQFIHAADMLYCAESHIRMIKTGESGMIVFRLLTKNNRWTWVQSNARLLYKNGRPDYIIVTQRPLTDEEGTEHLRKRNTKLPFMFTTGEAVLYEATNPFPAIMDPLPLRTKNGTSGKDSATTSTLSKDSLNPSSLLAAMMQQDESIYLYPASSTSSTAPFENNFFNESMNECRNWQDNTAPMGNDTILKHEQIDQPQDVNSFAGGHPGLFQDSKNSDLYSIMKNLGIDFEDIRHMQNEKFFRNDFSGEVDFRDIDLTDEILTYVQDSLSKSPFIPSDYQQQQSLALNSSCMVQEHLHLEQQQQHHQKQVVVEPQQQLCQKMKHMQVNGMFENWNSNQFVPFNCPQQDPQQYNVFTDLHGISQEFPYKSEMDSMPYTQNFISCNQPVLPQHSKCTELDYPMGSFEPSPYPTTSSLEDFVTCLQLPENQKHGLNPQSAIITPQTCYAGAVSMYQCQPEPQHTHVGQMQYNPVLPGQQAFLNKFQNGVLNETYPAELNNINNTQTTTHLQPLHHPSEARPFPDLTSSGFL
Assay: hAHR Nuclear Translocation Assay
Format: cell-based
Settings: Jump-In T-REx HEK293 cells expressing AhR-EGFP chimera; 45 minutes incubation; ratio of EGFP fluorescent intensity in nuclear over cytosol; 20-point curve
Procedure: Stable cell lines were established using Jump-In™ T-REx™ HEK293 Retargeting Kit (Life Technologies). Human AHR cDNA was cloned into the pJTI R4 CMV-TO EGFP vector. The EGFP was cloned to the C-terminal of AHR to form AhR-EGFP chimera. The pJTI R4 CMV-TO AhR-EGFP vector was transfected using FuGENE® HD into Jump-In™ T-REx™ HEK293 cells. Transfected cells were selected using 2.5 mg/ml G418 for 10 to 14 days, then expanded, harvested, and suspended in freeze media (FBS with 8% DMSO) at 2×10^7 cells/ml, and aliquots were stored in liquid nitrogen. […] On the assay date, compound was serially diluted (1:2) into 384-well nunc plates with DMSO using acoustic dispensing (ECHO). The dose response was a 20-point curve. Compound was resuspended in 40 μl of DMEM plus 0.1% BSA. The culture media was damped and 25 μl of DMEM plus 0.1% BSA was added, then 25 μl of compound in DMEM plus 0.1% BSA was added into cell plates. Cells were incubated with compounds at 37° C. and 5% CO2 for 45 minutes. The final DMSO concentration was 0.2%. The media was damped after 45 minutes of incubation. The cells were fixed with 40 μl of cold methanol (−20° C.) for 20 minutes. The methanol was damped and 50 μl of DPBS containing 1 μg/ml Hochst was added into the cell plates. The intensity of EGFP was quantitated by using OPERA PHENIX® or Operetta™ high content image system (Perkin Elmer) with 20× Water Objective and five field per well. The ratio of EGFP fluorescent intensity in nuclear over cytosol was analyzed using a 4-parameter nonlinear logistic equation to determine the potency of AHR agonists.

Row | Compound | EC50 [nM]
1 | Cn1c(=O)c(C(=O)NC23CC(C2)C3)cc2ccccc21 [Example 32, N-(3-Bicyclo[1.1.1]pentanyl)-1-methyl-2-oxo-quinoline-3-carboxamide] | 16.4
2 | Cn1c(=O)c(C(=O)Nc2ccccc2)cc2cc(OCCO)ccc21 [Example 58, 6-(2-Hydroxyethoxy)-1-methyl-2-oxo-N-phenyl-quinoline-3-carboxamide] | 7.45
3 | Cn1c(=O)c(C(=O)Nc2ccccn2)cc2cc(OCCO)ccc21 [Example 59, 6-(2-Hydroxyethoxy)-1-methyl-2-oxo-N-(2-pyridyl)quinoline-3-carboxamide] | 19.2
4 | Cn1cc(NC(=O)c2cc3ccccc3n(C)c2=O)cn1 [Example 27, hydrochloride] | 10.6
5 | Cn1c(=O)c(C(=O)Nc2ncc(F)s2)cc2c(NCCO)cccc21 [Example 64, N-(5-Fluorothiazol-2-yl)-5-(2-hydroxyethylamino)-1-methyl-2-oxo-quinoline-3-carboxamide] | 52.9
6 | COc1cccc(NC(=O)c2cc3ccccc3n(C)c2=O)n1 [Example 21, N-(6-Methoxy-2-pyridyl)-1-methyl-2-oxo-quinoline-3-carboxamide] | 10.8
7 | COc1ccc(NC(=O)c2cc3ccc(NCCN(C)C)cc3n(C)c2=O)cc1 [Example 56, 7-[2-(Dimethylamino)ethylamino]-N-(4-methoxyphenyl)-1-methyl-2-oxo-quinoline-3-carboxamide] | 79.2
8 | CN(C)CCNc1cccc2c1cc(C(=O)Nc1ccccc1)c(=O)n2C [Example 48, 5-[2-(Dimethylamino)ethylamino]-1-methyl-2-oxo-N-phenyl-quinoline-3-carboxamide] | 21.3
9 | COc1ccc(NC(=O)c2cc3ccc(N(C)C)cc3n(C)c2=O)cc1 [Example 47, 7-(Dimethylamino)-N-(4-methoxyphenyl)-1-methyl-2-oxo-quinoline-3-carboxamide] | 18
10 | Cc1cccc(NC(=O)c2cc3ccccc3n(C)c2=O)n1 [Example 19, 1-Methyl-N-(6-methyl-2-pyridyl)-2-oxo-quinoline-3-carboxamide] | 25.8
11 | Cn1c(=O)c(C(=O)Nc2ccc(C#N)nc2)cc2ccccc21 [Example 24, N-(6-Cyano-3-pyridyl)-1-methyl-2-oxo-quinoline-3-carboxamide] | 7.36
12 | O=C(Nc1ccccc1)c1cc2ccccc2[nH]c1=O [Example 34, 2-Oxo-N-phenyl-1H-quinoline-3-carboxamide] | 9.04
13 | CN(C)CCNc1cccc2c1cc(C(=O)Nc1ncc(C(F)(F)F)cn1)c(=O)n2C [Example 54, 5-[2-(Dimethylamino)ethylamino]-1-methyl-2-oxo-N-[5-(trifluoromethyl)pyrimidin-2-yl]quinoline-3-carboxamide] | 18.3
14 | Cn1c(=O)c(C(=O)Nc2ncc(F)cn2)cc2c(NCCO)cccc21 [Example 68, N-(5-Fluoropyrimidin-2-yl)-5-(2-hydroxyethylamino)-1-methyl-2-oxo-quinoline-3-carboxamide] | 81.2
15 | CO[C@H]1CC[C@@H](NC(=O)c2cc3cccc4c3n(c2=O)CC4)C1 (relative stereo) [Example 31, 11-Oxo-N-[rel-(1S,3R)-3-methoxycyclopentyl]-1-azatricyclo[6.3.1.04,12]dodeca-4(12),5,7,9-tetraene-10-carboxamide] | 53.2

Now those with a lower EC50, led by results:

Row | EC50 [nM] | Compound
16 | 1.4 | Cn1c(=O)c(C(=O)Nc2ccccc2)cc2c(OCCO)cccc21 [Example 60, 5-(2-Hydroxyethoxy)-1-methyl-2-oxo-N-phenyl-quinoline-3-carboxamide]
17 | 0.831 | Cn1c(=O)c(C(=O)Nc2ccccc2)cc2ccc(Br)cc21 [Example 40, 7-Bromo-1-methyl-2-oxo-N-phenyl-quinoline-3-carboxamide]
18 | 0.214 | Cn1c(=O)c(C(=O)Nc2ccc(F)cc2)cc2ccccc21 [Example 4, N-(4-Fluorophenyl)-1-methyl-2-oxo-quinoline-3-carboxamide]
19 | 0.595 | COc1ccc(NC(=O)c2cc3ccc(C)cc3n(C)c2=O)cc1 [Example 44, N-(4-Methoxyphenyl)-1,7-dimethyl-2-oxo-quinoline-3-carboxamide]
20 | 6.34 | O=C(Nc1ncccn1)c1cc2cccc3c2n(c1=O)CC3 [Example 38, 11-Oxo-N-pyrimidin-2-yl-1-azatricyclo[6.3.1.04,12]dodeca-4(12),5,7,9-tetraene-10-carboxamide]
21 | 6.89 | Cn1c(=O)c(C(=O)Nc2ccncc2)cc2ccccc21 [Example 12, 1-Methyl-2-oxo-N-(4-pyridyl)quinoline-3-carboxamide]
22 | 0.675 | Cc1ccc(NC(=O)c2cc3ccccc3n(C)c2=O)nc1 [Example 20, 1-Methyl-N-(5-methyl-2-pyridyl)-2-oxo-quinoline-3-carboxamide]
23 | 1.91 | Cn1c(=O)c(C(=O)Nc2ccccc2)cc2c(NCCO)cccc21 [Example 63, 5-(2-Hydroxyethylamino)-1-methyl-2-oxo-N-phenyl-quinoline-3-carboxamide]
24 | 3.5 | Cc1ccccc1NC(=O)c1cc2ccccc2n(C)c1=O [Example 11, 1-Methyl-N-(o-tolyl)-2-oxo-quinoline-3-carboxamide]
25 | 2.37 | Cc1cnc(NC(=O)c2cc3ccccc3n(C)c2=O)nc1 [Example 17, 1-Methyl-N-(5-methylpyrimidin-2-yl)-2-oxo-quinoline-3-carboxamide]
26 | 0.613 | Cn1c(=O)c(C(=O)Nc2ccccn2)cc2ccccc21 [Example 9, 1-Methyl-2-oxo-N-(2-pyridyl)quinoline-3-carboxamide]
27 | 5.17 | COc1ccc(NC(=O)c2cc3ccccc3n(C)c2=O)c(C)c1 [Example 6, N-(4-Methoxy-2-methyl-phenyl)-1-methyl-2-oxo-quinoline-3-carboxamide]
28 | 0.601 | Cn1c(=O)c(C(=O)Nc2cccc(F)c2)cc2ccccc21 [Example 23, N-(3-Fluorophenyl)-1-methyl-2-oxo-quinoline-3-carboxamide]
29 | 0.993 | Cn1c(=O)c(C(=O)Nc2ncc(F)cn2)cc2ccccc21 [Example 14, N-(5-Fluoropyrimidin-2-yl)-1-methyl-2-oxo-quinoline-3-carboxamide]
30 | 0.837 | COc1ccc(NC(=O)c2cc3ccccc3n(C)c2=O)cc1OC [Example 3, N-(3,4-Dimethoxyphenyl)-1-methyl-2-oxo-quinoline-3-carboxamide]
31 | 2.21 | CNc1ccc2cc(C(=O)Nc3ccc(OC)cc3)c(=O)n(C)c2c1 [Example 46, N-(4-Methoxyphenyl)-1-methyl-7-(methylamino)-2-oxo-quinoline-3-carboxamide]
32 | 0.701 | COc1ccc(NC(=O)c2cc3cccc4c3n(c2=O)CC4)cc1 [Example 26, N-(4-Methoxyphenyl)-11-oxo-1-azatricyclo[6.3.1.04,12]dodeca-4(12),5,7,9-tetraene-10-carboxamide]
33 | 3.72 | Cn1c(=O)c(C(=O)Nc2cccnc2)cc2ccccc21 [Example 13, 1-Methyl-2-oxo-N-(3-pyridyl)quinoline-3-carboxamide]
34 | 6.66 | Cn1c(=O)c(C(=O)Nc2ncc(C(F)(F)F)cn2)cc2c(NCCO)cccc21 [Example 69, 5-(2-Hydroxyethylamino)-1-methyl-2-oxo-N-[5-(trifluoromethyl)pyrimidin-2-yl]quinoline-3-carboxamide]
35 | 6 | Cn1c(=O)c(C(=O)Nc2ccccc2)cc2cc(NCCO)ccc21 [Example 62, 6-(2-Hydroxyethylamino)-1-methyl-2-oxo-N-phenyl-quinoline-3-carboxamide]

Reference: US12479822B2, “AHR agonists” (Eli Lilly and Company, priority 2021, dated 2025)
